# Data published in article PMC10006169, “A phase I trial of LXS196, a protein kinase C (PKC) inhibitor, for metastatic uveal melanoma” (British Journal of Cancer, 2023).
# Values joined by “and” are separate entries in the source; they are usually repeats but may differ in a detail not shown here. Identical values can stand only once.
# How the values were obtained:
# patients with MUM = experiment: First cycle dose-limiting toxicities, phase I dose escalation; type: in vivo; conditions: for Maximum tolerated dose (MTD): BLRM and EWOC
# Protocol: The study protocol and amendments were approved by the Independent Ethics Committee or Institutional Review Board for each centre, and all patients provided written informed consent. The study was conducted according to the principles of the Declaration of Helsinki and performed in compliance with Good Clinical Practice. All patients were aged ≥18 years old and had biopsy-proven MUM with progressive and measurable disease. […] There was no eligibility limit to the number of prior lines of therapy, including PKC inhibitors other than LXS196.
# During dose escalation, patients received oral LXS196 either once daily (QD; 100–1000 mg) or twice daily (BID; 200–400 mg) in 28-day cycles until disease progression, intolerable toxicity or withdrawal of consent (Supplementary Fig. 1). Dosing was omitted on the second day of the first cycle (C1D2) to allow for longer post-dose sampling in order to better characterise PK. LXS196 was given on an empty stomach, at least 1 h before or 2 h after a meal. Dose escalation was guided by safety, PK data and a two-parameter Bayesian Logistic Regression Model (BLRM) employing escalation with overdose control (EWOC) criteria. The DLT period lasted 28 days after the first dose of LXS196. […] Upon determination of the MTD/RDE, the expansion part of the study was opened to further evaluate the safety, tolerability, PK and PD of LXS196 at the RDE in patients with MUM. No hypothesis testing was planned in this study, and therefore, no formal sample size calculation was needed. The sample size was selected to ensure the BLRM had adequate operating characteristics when selecting the MTD/RDE.
# Routine safety assessments, including laboratory assessments, physical examinations, vital signs and electrocardiograms (ECGs), were conducted at regular intervals throughout the study and more frequently as needed following patient assessment by the treating physician. Adverse events (AEs) were assessed continuously according to the National Cancer Institute Common Terminology Criteria for Adverse Events (NCI-CTCAE) v4.03.
# RasGRP3, DUSP6 = experiment: RNAseq gene expression in tumour biopsies; type: in vivo, human
# Protocol: Detailed DNA and RNA extraction methods and analysis are described in the supplementary appendix.
# RNA libraries were prepared for RNAseq as previously described. Briefly, the total RNA was depleted of ribosomal RNA (rRNA), fragmented, converted to cDNA, and then the next generation sequencing (NGS) library was constructed using the TruSeq RNA v2 Library Preparation Kit (Illumina) with end repair, A-tailing, indexed adaptor ligation and PCR amplification steps. Sequence reads were aligned with STAR [12] to the hg19 human reference genome, and read counts of coding regions were summarised by HTSeq using a reference transcriptome of human Refseq transcripts.
# [1] = tested on: skin-derived melanoma cell lines driven by mutant B-Raf or N-Ras; design: method as in ref 18 = [18]; 18. Visser M, Papillon J, Fan J, Luzzio M, Michael W, Wang R, et al. NVP-LXS196, a novel PKC inhibitor for the treatment of uveal melanoma. Paper presented at: Abstracts of papers of the American Chem; conditions: cited from earlier work
# 92.1 human UM xenograft = tested on: 92.1 human UM xenograft; design: method as in PMID 27507190; conditions: doses below MTD; cited from earlier work
# dog = tested on: dog; design: method as in ref 20 = [20]; 20. IDEAYA Biosciences. IDE196 (LXS196, Darovasertib) investigator’s brochure. IDEAYA Biosciences; 2022.; conditions: cited from earlier work
# [2] = tested on: UM cell lines containing mutant GNAQ or GNA11; conditions: cited from earlier work
structure (smiles),measurement,setting,value
CC1(N)CCN(c2cccnc2NC(=O)c2nc(-c3ncccc3C(F)(F)F)cnc2N)CC1 [LXS196],Generalised oedema DLT,patients with MUM; 100 mg QD n=3,0 n (%)
same,Hypotension DLT,patients with MUM; 100 mg QD n=3,0 n (%)
same,Nausea DLT,patients with MUM; 100 mg QD n=3,0 n (%)
same,Neutropenia DLT,patients with MUM; 100 mg QD n=3,0 n (%)
same,Total DLT events,patients with MUM; 100 mg QD n=3,0 n (%)
same,Vomiting DLT,patients with MUM; 100 mg QD n=3,0 n (%)
same,Generalised oedema DLT,patients with MUM; 200 mg BID n=5,0 n (%)
same,Hypotension DLT,patients with MUM; 200 mg BID n=5,0 n (%)
same,Nausea DLT,patients with MUM; 200 mg BID n=5,0 n (%)
same,Neutropenia DLT,patients with MUM; 200 mg BID n=5,0 n (%)
same,Total DLT events,patients with MUM; 200 mg BID n=5,0 n (%)
same,Vomiting DLT,patients with MUM; 200 mg BID n=5,0 n (%)
same,Generalised oedema DLT,patients with MUM; 200 mg QD n=4,0 n (%)
same,Hypotension DLT,patients with MUM; 200 mg QD n=4,0 n (%)
same,Neutropenia DLT,patients with MUM; 200 mg QD n=4,0 n (%)
same,Total DLT events,patients with MUM; 200 mg QD n=4,2 (50.0) n (%)
same,Nausea DLT,"patients with MUM; 200 mg QD n=4, Grade 3",1 (25.0) (Grade 3) n (%)
same,Vomiting DLT,"patients with MUM; 200 mg QD n=4, Grade 3",1 (25.0) (Grade 3) n (%)
same,Generalised oedema DLT,patients with MUM; 300 mg BID n=6,0 n (%)
same,Hypotension DLT,patients with MUM; 300 mg BID n=6,0 n (%)
same,Nausea DLT,patients with MUM; 300 mg BID n=6,0 n (%)
same,Neutropenia DLT,patients with MUM; 300 mg BID n=6,0 n (%)
same,Total DLT events,patients with MUM; 300 mg BID n=6,0 n (%)
same,Vomiting DLT,patients with MUM; 300 mg BID n=6,0 n (%)
same,Generalised oedema DLT,patients with MUM; 300 mg QD n=15,0 n (%)
same,Hypotension DLT,patients with MUM; 300 mg QD n=15,0 n (%)
same,Nausea DLT,patients with MUM; 300 mg QD n=15,0 n (%)
same,Neutropenia DLT,patients with MUM; 300 mg QD n=15,0 n (%)
same,Total DLT events,patients with MUM; 300 mg QD n=15,0 n (%)
same,Vomiting DLT,patients with MUM; 300 mg QD n=15,0 n (%)
same,Hypotension DLT,patients with MUM; 400 mg BID n=6,1 (16.7) n (%)
same,Nausea DLT,patients with MUM; 400 mg BID n=6,0 n (%)
same,Neutropenia DLT,patients with MUM; 400 mg BID n=6,0 n (%)
same,Total DLT events,patients with MUM; 400 mg BID n=6,2 (33.4) n (%)
same,Vomiting DLT,patients with MUM; 400 mg BID n=6,0 n (%)
same,Generalised oedema DLT,"patients with MUM; 400 mg BID n=6, Grade 3",1 (16.7) (Grade 3) n (%)
same,Generalised oedema DLT,patients with MUM; 500 mg QD n=11,0 n (%)
same,Nausea DLT,patients with MUM; 500 mg QD n=11,0 n (%)
same,Total DLT events,patients with MUM; 500 mg QD n=11,3 (27.3) n (%)
same,Vomiting DLT,patients with MUM; 500 mg QD n=11,0 n (%)
same,Hypotension DLT,"patients with MUM; 500 mg QD n=11, Grade 3",2 (18.2) (Grade 3) n (%)
same,Neutropenia DLT,"patients with MUM; 500 mg QD n=11, Grade 4",1 (9.1) (Grade 4) n (%)
same,Generalised oedema DLT,patients with MUM; 800 mg QD n=1,0 n (%)
same,Nausea DLT,patients with MUM; 800 mg QD n=1,0 n (%)
same,Neutropenia DLT,patients with MUM; 800 mg QD n=1,0 n (%)
same,Total DLT events,patients with MUM; 800 mg QD n=1,1 (100) n (%)
same,Vomiting DLT,patients with MUM; 800 mg QD n=1,0 n (%)
same,Hypotension DLT,"patients with MUM; 800 mg QD n=1, Grade 4",1 (100) (Grade 4) n (%)
same,Generalised oedema DLT,patients with MUM; 1000 mg QD n=4,0 n (%)
same,Nausea DLT,patients with MUM; 1000 mg QD n=4,0 n (%)
same,Neutropenia DLT,patients with MUM; 1000 mg QD n=4,0 n (%)
same,Total DLT events,patients with MUM; 1000 mg QD n=4,2 (50.0) n (%)
same,Vomiting DLT,patients with MUM; 1000 mg QD n=4,0 n (%)
same,Hypotension DLT,"patients with MUM; 1000 mg QD n=4, Grade 2 and 4",2 (50.0) (Grade 2 and 4) n (%)
same,Generalised oedema DLT,patients with MUM; All BID n=17,1 (5.9) n (%)
same,Hypotension DLT,patients with MUM; All BID n=17,1 (5.9) n (%)
same,Nausea DLT,patients with MUM; All BID n=17,0 n (%)
same,Neutropenia DLT,patients with MUM; All BID n=17,0 n (%)
same,Total DLT events,patients with MUM; All BID n=17,2 (11.8) n (%)
same,Vomiting DLT,patients with MUM; All BID n=17,0 n (%)
same,Generalised oedema DLT,patients with MUM; All QD n=38,0 n (%)
same,Hypotension DLT,patients with MUM; All QD n=38,5 (13.2) n (%)
same,Nausea DLT,patients with MUM; All QD n=38,1 (2.6) n (%)
same,Neutropenia DLT,patients with MUM; All QD n=38,1 (2.6) n (%)
same,Total DLT events,patients with MUM; All QD n=38,8 (21.0) n (%)
same,Vomiting DLT,patients with MUM; All QD n=38,1 (2.6) n (%)
same,Generalised oedema DLT,patients with MUM; All patients n=55,1.8 n (%) and 1 (1.8) n (%)
same,Hypotension DLT,patients with MUM; All patients n=55,6 (10.9) n (%)
same,Nausea DLT,patients with MUM; All patients n=55,1.8 n (%) and 1 (1.8) n (%)
same,Neutropenia DLT,patients with MUM; All patients n=55,1.8 n (%) and 1 (1.8) n (%)
same,Total DLT events,patients with MUM; All patients n=55,16.4 n (%)
same,Vomiting DLT,patients with MUM; All patients n=55,1.8 n (%) and 1 (1.8) n (%)
same,Recommended dose for expansion (RDE),patients with MUM; BID,300 mg
same,Maximum tolerated dose (MTD),patients with MUM; BID schedule,400 mg
same,Maximum tolerated dose (MTD),patients with MUM; QD schedule,500 mg
same,Doses at which hypotension DLT occurred,patients with MUM; most common DLT,≥ 500 mg/day
same,MAPK pathway activity as measured by DUSP6 expression,"RasGRP3, DUSP6",trend towards suppression in the PR group
same,RasGRP3 expression on treatment,"RasGRP3, DUSP6; C1D15, QD and BID",decreased in some patients
same,Cellular activity,[1],no activity observed
same,Tumour effect as single agent,92.1 human UM xenograft,tumour regression
same,Reversibility of findings,dog; 4-week recovery phase,partial to complete reversibility
same,Potential target organ,"dog; 4-week toxicology study, dog",GI tract
same,Potential toxicity,"dog; single-dose and 4-week repeated dose, dog",decrease in systolic blood pressure
same,Cellular activity,[2],cellular activity restricted to UM cell lines containing mutant GNAQ or GNA11
